Publication PMC13366377 (Acta Pharmaceutica Sinica. B, 2025)
Positions of bridges follow the written chain, without caps; N, C: chain ends. Non-standard residues stand in square brackets, D forms with d. Residues, ends and D or L forms follow the SMILES beside them. pGlu = O=C1CC[C@@H](C(=O)O)N1

Tests used:
hα7 nAChR = hα7 nAChR (Homo sapiens, UniProt P36544); experiment: cell-based
α7^EM nAChR = α7^EM nAChR (Homo sapiens, UniProt P36544); experiment: cell-based; assay type: cell-based
α7^EM nAChR S56A = α7^EM nAChR S56A (Homo sapiens, UniProt P36544, S56A, form not given); assay type: cell-based; conditions: read-out: IC50 at α7^EM nAChR mutant S56A
α7^EM nAChR E184Q = α7^EM nAChR E184Q (Homo sapiens, UniProt P36544, E184Q, form not given); assay type: cell-based; conditions: read-out: IC50 at α7^EM nAChR mutant E184Q
α7^EM nAChR R208A = α7^EM nAChR R208A (Homo sapiens, UniProt P36544, R208A, form not given); assay type: cell-based; conditions: read-out: IC50 at α7^EM nAChR mutant R208A
α7^EM nAChR Q139E = α7^EM nAChR Q139E (Homo sapiens, UniProt P36544, Q139E, form not given); assay type: cell-based; conditions: read-out: IC50 at α7^EM nAChR mutant Q139E
in vitro = conditions: human, serum

Chain of hα7 nAChR (P36544 23-502): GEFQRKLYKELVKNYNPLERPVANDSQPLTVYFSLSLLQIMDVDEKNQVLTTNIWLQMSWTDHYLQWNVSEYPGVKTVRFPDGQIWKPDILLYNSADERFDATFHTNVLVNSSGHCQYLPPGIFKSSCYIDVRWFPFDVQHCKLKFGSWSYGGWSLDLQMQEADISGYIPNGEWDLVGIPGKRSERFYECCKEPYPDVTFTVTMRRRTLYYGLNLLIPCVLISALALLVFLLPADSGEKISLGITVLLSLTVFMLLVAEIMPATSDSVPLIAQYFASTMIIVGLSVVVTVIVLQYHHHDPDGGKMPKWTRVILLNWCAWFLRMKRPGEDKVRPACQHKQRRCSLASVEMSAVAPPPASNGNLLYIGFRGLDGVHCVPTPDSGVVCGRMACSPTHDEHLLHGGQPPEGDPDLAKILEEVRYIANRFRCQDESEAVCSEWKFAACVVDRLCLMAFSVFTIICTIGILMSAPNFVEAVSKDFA
Chain of α7^EM nAChR (P36544 23-233 limits assumed): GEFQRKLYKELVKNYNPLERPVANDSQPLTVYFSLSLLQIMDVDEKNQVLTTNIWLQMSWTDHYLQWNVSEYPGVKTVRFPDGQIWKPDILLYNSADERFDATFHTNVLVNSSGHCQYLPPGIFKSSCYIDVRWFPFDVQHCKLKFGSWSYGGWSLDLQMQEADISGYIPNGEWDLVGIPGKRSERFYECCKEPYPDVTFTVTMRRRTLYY
Chain of α7^EM nAChR E184Q (P36544 23-502 E184Q, form open): as the sequence (P36544 23-502) above, with E162Q counted along it
Chain of α7^EM nAChR Q139E (P36544 23-502 Q139E, form open): as the sequence (P36544 23-502) above, with Q117E counted along it
Chain of α7^EM nAChR R208A (P36544 23-502 R208A, form open): as the sequence (P36544 23-502) above, with R186A counted along it
Chain of α7^EM nAChR S56A (P36544 23-502 S56A, form open): as the sequence (P36544 23-502) above, with S34A counted along it

## N=C(N)NCCC[C@@H]1NC(=O)[C@H](CO)NC(=O)[C@H](Cc2c[nH]c3ccccc23)NC(=O)[C@H](Cc2c[nH]c3ccccc23)NC(=O)[C@H](CCCNC(=N)N)NC(=O)[C@@H](NC(=O)[C@H](CCCNC(=N)N)NC(=O)[C@@H]2CCCN2C(=O)[C@@H](N)CCC(N)=O)CSSC[C@@H](C(N)=O)NC(=O)[C@H](Cc2c[nH]c3ccccc23)NC1=O [[G3R]SS1] (H-QPRCRWWSRWC-NH2; disulfide 4-11)
hα7 nAChR
  potency at hα7 nAChR relative to parent peptide (in words): no significant differences

## N=C(N)NCCC[C@@H]1NC(=O)[C@@H](NC(=O)CNC(=O)[C@H](CCCNC(=N)N)NC(=O)[C@@H](N)CCC(N)=O)CSSC[C@@H](C(N)=O)NC(=O)[C@H](Cc2c[nH]c3ccccc23)NC(=O)[C@H](CCCNC(=N)N)NC(=O)[C@H](CO)NC(=O)[C@H](Cc2c[nH]c3ccccc23)NC(=O)[C@H](Cc2c[nH]c3ccccc23)NC1=O [[P2R]SS1] (H-QRGCRWWSRWC-NH2; disulfide 4-11)
hα7 nAChR
  potency at hα7 nAChR relative to parent peptide (in words): no significant differences

## N=C(N)NCCC[C@@H]1NC(=O)[C@@H](NC(=O)CNC(=O)[C@@H]2CCCN2C(=O)[C@@H](N)CCC(=O)O)CSSC[C@@H](C(N)=O)NC(=O)[C@H](Cc2c[nH]c3ccccc23)NC(=O)[C@H](CCCNC(=N)N)NC(=O)[C@H](CCCNC(=N)N)NC(=O)[C@H](Cc2c[nH]c3ccccc23)NC(=O)[C@H](Cc2c[nH]c3ccccc23)NC1=O [[Q1E, S8R]SS1] (H-EPGCRWWRRWC-NH2; disulfide 4-11)
α7^EM nAChR
  IC50: 364 ± 103 nM
  increase in potency versus [S8R]SS1 at α7^EM nAChR: 1.8 fold

## N=C(N)NCCC[C@@H]1NC(=O)[C@@H](NC(=O)CNC(=O)[C@@H]2CCCN2C(=O)[C@@H]2CCC(=O)N2)CSSC[C@@H](C(N)=O)NC(=O)[C@H](Cc2c[nH]c3ccccc23)NC(=O)[C@H](CCCNC(=N)N)NC(=O)[C@H](CCCNC(=N)N)NC(=O)[C@H](Cc2c[nH]c3ccccc23)NC(=O)[C@H](Cc2c[nH]c3ccccc23)NC1=O [[Q1Pyr, S8R]SS1] ([pGlu]PGCRWWRRWC-NH2; disulfide 4-11)
α7^EM nAChR
  IC50: 1390 ± 260 nM

## N=C(N)NCCC[C@@H]1NC(=O)[C@@H](NC(=O)CNC(=O)[C@@H]2CCCN2C(=O)[C@@H](N)CCCNC(=N)N)CSSC[C@@H](C(N)=O)NC(=O)[C@H](Cc2c[nH]c3ccccc23)NC(=O)[C@H](CCCNC(=N)N)NC(=O)[C@H](CCCNC(=N)N)NC(=O)[C@H](Cc2c[nH]c3ccccc23)NC(=O)[C@H](Cc2c[nH]c3ccccc23)NC1=O [[Q1R, S8R]SS1] (H-RPGCRWWRRWC-NH2; disulfide 4-11)
α7^EM nAChR
  IC50: 136 ± 27.8 nM
  increase in potency versus [S8R]SS1 at α7^EM nAChR: 4.8 fold

## N=C(N)NCCC[C@@H]1NC(=O)[C@@H](NC(=O)CNC(=O)[C@@H]2CCCN2C(=O)[C@@H](N)CCCNC(=N)N)CSSC[C@@H](C(N)=O)NC(=O)[C@H](Cc2c[nH]c3ccccc23)NC(=O)[C@H](CCCNC(=N)N)NC(=O)[C@H](CO)NC(=O)[C@H](Cc2c[nH]c3ccccc23)NC(=O)[C@H](Cc2c[nH]c3ccccc23)NC1=O [[Q1R]SS1] (H-RPGCRWWSRWC-NH2; disulfide 4-11)
hα7 nAChR
  potency at hα7 nAChR relative to parent peptide (in words): no significant differences

## N=C(N)NCCC[C@@H]1NC(=O)[C@@H](NC(=O)CNC(=O)[C@@H]2CCCN2C(=O)[C@@H](N)CCC(N)=O)CSSC[C@@H](C(N)=O)NC(=O)[C@H](Cc2c[nH]c3ccccc23)NC(=O)[C@H](CCCNC(=N)N)NC(=O)[C@H](CCCNC(=N)N)NC(=O)[C@H](Cc2c[nH]c3ccccc23)NC(=O)[C@H](Cc2c[nH]c3ccccc23)NC1=O [[S8R]SS1] (H-QPGCRWWRRWC-NH2; disulfide 4-11)
α7^EM nAChR S56A
  IC50: 234 ± 36.1 nM
α7^EM nAChR E184Q
  IC50: 555 ± 99.9 nM
α7^EM nAChR
  IC50: 659 ± 92.9 nM
α7^EM nAChR R208A
  IC50: 1930 ± 196 nM
α7^EM nAChR Q139E
  IC50: 852 ± 66.3 nM

## N=C(N)NCCC[C@@H]1NC(=O)[C@@H](NC(=O)CNC(=O)[C@@H]2CCCN2C(=O)[C@@H](N)CCC(N)=O)CSSC[C@@H](C(N)=O)NC(=O)[C@H](Cc2c[nH]c3ccccc23)NC(=O)[C@H](CCCNC(=N)N)NC(=O)[C@H](CCCNC(=N)N)NC(=O)[C@H](Cc2c[nH]c3ccccc23)NC(=O)[C@H](CCCNC(=N)N)NC1=O [[W6R, S8R]SS1] (H-QPGCRRWRRWC-NH2; disulfide 4-11)
hα7 nAChR; n = 8-10
  potency of [S8R]SS1 analogues at hα7 nAChR relative to [S8R]SS1 (in words): maintained potency

## N=C(N)NCCC[C@@H]1NC(=O)[C@@H](NC(=O)CNC(=O)[C@@H]2CCCN2C(=O)[C@@H](N)CCC(N)=O)CSSC[C@@H](C(N)=O)NC(=O)[C@H](Cc2c[nH]c3ccccc23)NC(=O)[C@H](CCCNC(=N)N)NC(=O)[C@H](CO)NC(=O)[C@H](Cc2c[nH]c3ccccc23)NC(=O)[C@H](CCCNC(=N)N)NC1=O [[W6R]SS1] (H-QPGCRRWSRWC-NH2; disulfide 4-11)
hα7 nAChR
  potency at hα7 nAChR relative to parent peptide (in words): completely lost potency

## N=C(N)NCCC[C@@H]1NC(=O)[C@@H](NC(=O)CNC(=O)[C@@H]2CCCN2C(=O)[C@@H](N)CCC(N)=O)CSSC[C@@H](C(N)=O)NC(=O)[C@H](Cc2c[nH]c3ccccc23)NC(=O)[C@H](CCCNC(=N)N)NC(=O)[C@H](CO)NC(=O)[C@H](CCCNC(=N)N)NC(=O)[C@H](Cc2c[nH]c3ccccc23)NC1=O [[W7R]SS1] (H-QPGCRWRSRWC-NH2; disulfide 4-11)
hα7 nAChR
  potency at hα7 nAChR relative to parent peptide (in words): no significant differences

## N=C(N)NCCC[C@@H]1NC(=O)[C@@H](NC(=O)CN)CSSC[C@@H](C(N)=O)NC(=O)[C@H](Cc2c[nH]c3ccccc23)NC(=O)[C@H](CCCNC(=N)N)NC(=O)[C@H](CCCNC(=N)N)NC(=O)[C@H](Cc2c[nH]c3ccccc23)NC(=O)[C@H](Cc2c[nH]c3ccccc23)NC1=O [[ΔQP, S8R]SS1] (H-GCRWWRRWC-NH2; disulfide 2-9)
In vitro
  remaining at 24 h: 14%
hα7 nAChR
  IC50: 49.2 nM
  increase in potency compared to SS1: ~29 fold
